Twelve molecules from BindingDB's records for doi:10.1021/jm9800447 (The George Washington University Medical Center, 1998) can be followed below.

The target in this assay is Sigma non-opioid intracellular receptor 1 (Cavia porcellus) (UniProt Q60492). Nature of the assay: Inhibition of [3H](+)-pentazocine binding to sigma-1 receptor in guinea pig brain membranes.
Sequence of Sigma non-opioid intracellular receptor 1 (Cavia porcellus) (Q60492 whole entry, looked up): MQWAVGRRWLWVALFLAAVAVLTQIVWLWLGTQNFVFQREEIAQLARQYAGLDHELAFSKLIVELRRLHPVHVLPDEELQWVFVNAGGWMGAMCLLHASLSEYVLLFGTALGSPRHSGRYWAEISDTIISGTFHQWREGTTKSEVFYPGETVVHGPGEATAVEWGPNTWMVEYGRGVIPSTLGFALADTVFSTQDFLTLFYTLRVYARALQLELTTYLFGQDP
With `O=S(=O)(NCCN1CCCC1)c1ccc(Br)cc1` [4-Bromo-N-(2-pyrrolidin-1-yl-ethyl)-benzenesulfonamide], the Ki (commonly the equilibrium dissociation constant of an inhibitor or competing ligand from its target) amounted to 6.65 nM.
In the case of `O=S(=O)(NCCN1CCCCC1)c1ccc(I)cc1` [4-Iodo-N-(2-piperidin-1-yl-ethyl)-benzenesulfonamide], the Ki is 0.46 nM.
Consider `CCN(CC)CCNS(=O)(=O)c1ccc(Br)cc1` [4-Bromo-N-(2-diethylamino-ethyl)-benzenesulfonamide], for which the Ki stood at 10.1 nM.
For `CN(CCN1CCCCCC1)S(=O)(=O)c1ccc(I)cc1` [N-(2-Azepan-1-yl-ethyl)-4-iodo-N-methyl-benzenesulfonamide], the affinity, expressed as Ki, was 0.14 nM.
The figure for `O=S(=O)(NCCN1CCCCC1)c1ccc(Br)cc1` [4-Bromo-N-(2-piperidin-1-yl-ethyl)-benzenesulfonamide] is 1.54 nM.
Consider `O=S(=O)(NCCN1CCCCCC1)c1ccc(Br)cc1` [N-(2-Azepan-1-yl-ethyl)-4-bromo-benzenesulfonamide], for which the affinity corresponds to a Ki of 0.63 nM.
As for `COc1ccc(S(=O)(=O)NCCN2CCCCC2)cc1I` [3-Iodo-4-methoxy-N-(2-piperidin-1-yl-ethyl)-benzenesulfonamide], the Ki was found to be 41.8 nM.
The result for `O=S(=O)(NCCN1CCCCCC1)c1ccc(I)cc1` [N-(2-Azepan-1-yl-ethyl)-4-iodo-benzenesulfonamide] reads 1.32 nM; that for `CN(CCN1CCCCCC1)S(=O)(=O)c1ccc(Br)cc1` [N-(2-Azepan-1-yl-ethyl)-4-bromo-N-methyl-benzenesulfonamide], 0.18 nM; that for `CCN(CC)CCNS(=O)(=O)c1ccc(I)cc1` [N-(2-Diethylamino-ethyl)-4-iodo-benzenesulfonamide], 4.97 nM.
Molecule `COc1ccc(S(=O)(=O)N(C)CCN2CCCCCC2)cc1I` [N-(2-Azepan-1-yl-ethyl)-3-iodo-4-methoxy-N-methyl-benzenesulfonamide] had a Ki of 3.11 nM.
As for `O=S(=O)(NCCN1CCCC1)c1ccc(I)cc1` [4-Iodo-N-(2-pyrrolidin-1-yl-ethyl)-benzenesulfonamide], the Ki was determined as 4.3 nM.
